This note sets out measurements from ChEMBL document CHEMBL4052651, “Searching for novel N1-substituted benzimidazol-2-ones as non-nucleoside HIV-1 RT inhibitors” (Bioorg Med Chem, 2017).

Series [1] deals with Human immunodeficiency virus 1. In words: Antiviral activity against HIV1 3B infected in human MT4 cells assessed as inhibition of virus-induced cytopathic effect after 5 days by MTT assay. Type of series: functional, cell-based. The note with it: Human immunodeficiency virus 1, 3B, MT4, 120 h. (In general: Damage to the host cells serves as the signal in cytopathic effect assays.)

Series [2] deals with Human immunodeficiency virus type 1 reverse transcriptase (Human immunodeficiency virus 1, UniProt Q72547, L100I). In words: Inhibition of HIV-1 reverse transcriptase L100I mutant assessed as reduction in dTTP incorporation using poly(rA)/oligo(dT)16 as template/primer after 40 mins by PicoGreen dye based spectrofluorometric analysis.
In series [3] the target is Human immunodeficiency virus type 1 reverse transcriptase (Human immunodeficiency virus 1, UniProt Q72547, G190A). In words: Inhibition of HIV-1 reverse transcriptase G190A mutant assessed as reduction in dTTP incorporation using poly(rA)/oligo(dT)16 as template/primer after 40 mins by PicoGreen dye based spectrofluorometric analysis.
In series [4] the target is Human immunodeficiency virus type 1 reverse transcriptase (Human immunodeficiency virus 1, UniProt Q72547, E138K). In words: Inhibition of HIV-1 reverse transcriptase E138K mutant assessed as reduction in dTTP incorporation using poly(rA)/oligo(dT)16 as template/primer after 40 mins by PicoGreen dye based spectrofluorometric analysis.
In series [5] the target is Human immunodeficiency virus type 1 reverse transcriptase (Human immunodeficiency virus 1, UniProt Q72547, V106A). Briefly: Inhibition of HIV-1 reverse transcriptase V106A mutant assessed as reduction in dTTP incorporation using poly(rA)/oligo(dT)16 as template/primer after 40 mins by PicoGreen dye based spectrofluorometric analysis.
Series [6] is described as follows: Cytotoxicity against human MT4 cells assessed as reduction in cell viability after 5 days by MTT assay. Type of series: cell-based. For orientation: Formazan colour is commonly taken as a measure of viable cells.
Series [7] is described as follows: Selectivity index, ratio of CC50 for human MT4 cells to EC50 for HIV1 3B infected in human MT4 cells. The note with it: HIV1 3B infected MT4 cells, read-out: Ratio CC50/EC50. Type of series: toxicity, cell-based.
In series [8] the target is Human immunodeficiency virus type 1 reverse transcriptase (Human immunodeficiency virus 1, UniProt Q72547, K103N). Briefly: Inhibition of HIV-1 reverse transcriptase K103N mutant assessed as reduction in dTTP incorporation using poly(rA)/oligo(dT)16 as template/primer after 40 mins by PicoGreen dye based spectrofluorometric analysis.
Series [9] deals with Human immunodeficiency virus type 1 reverse transcriptase (Human immunodeficiency virus 1, UniProt Q72547, Y188L). Briefly: Inhibition of HIV-1 reverse transcriptase Y188L mutant assessed as reduction in dTTP incorporation using poly(rA)/oligo(dT)16 as template/primer after 40 mins by PicoGreen dye based spectrofluorometric analysis.
Series [10] concerns the target Human immunodeficiency virus type 1 reverse transcriptase (Human immunodeficiency virus 1, UniProt Q72547, Y181C). In words: Inhibition of HIV-1 reverse transcriptase Y181C mutant assessed as reduction in dTTP incorporation using poly(rA)/oligo(dT)16 as template/primer after 40 mins by PicoGreen dye based spectrofluorometric analysis.
Series [11] concerns the target Human immunodeficiency virus type 1 reverse transcriptase (Human immunodeficiency virus 1, UniProt Q72547). In words: Inhibition of recombinant wild-type HIV-1 reverse transcriptase p66/p51 RNA-dependent DNA polymerase activity expressed in Escherichia coli JM109 assessed as reduction in dTTP incorporation using poly(rA)/oligo(dT)16 as template/primer after 40 mins by PicoGreen dye based spectrofluorometric analysis.

Broadly, the EC50 is the concentration giving half of the maximal effect. Broadly, the IC50 is the concentration that inhibits the measured activity by half. What is called CC50 is the concentration at which the toxic effect on the cells reaches its halfway point.

`O=c1[nH]c2ccc(Cl)cc2n1S(=O)(=O)CCc1cccc(Cl)c1`: the half-maximal effective concentration (EC50) in series [1] was greater than 64 µM. The IC50 in [2] was no less than 285 µM; in series [3] it was 258 µM; in series [4] it was greater than 323 µM; in series [5], 45 µM; in [8] it was greater than 323 µM; in [9] it was greater than 323 µM. Moreover, the IC50 was found to be 74 µM in series [10] and 131 µM in series [11]. Further, the CC50 at 120 h in series [6] came to 63 µM. In [7], the selectivity ratio was less than 1.

Take `O=c1[nH]c2ccc(Cl)cc2n1S(=O)(=O)Cc1ccccc1Cl`: the EC50 in series [1] worked out at 0.19 µM. Further, the IC50 in series [2] was 7.13 µM; in series [3] it was 238 µM; in series [4] it was 12 µM; in [5], 1.8 µM; in series [8], greater than 335 µM; in [9], greater than 335 µM. The figures for the IC50 in series [10] and in series [11] were greater than 335 µM and 1.3 µM, respectively. Also, the CC50 at 120 h in [6] came out at 52 µM. For the same compound, the selectivity ratio in [7] is 271.

Regarding `Cc1ccccc1CCS(=O)(=O)n1c(=O)[nH]c2ccc(Cl)cc21`, the 50% effective concentration (EC50) in [1] is greater than 32 µM. In addition, the IC50 in series [2] turned out to be 59 µM; in series [3], 54 µM; in series [4], 49 µM; in [5], 44 µM; in [8], 89 µM; in series [9], 165 µM. Also, the results for the IC50 in series [10] and in series [11] were 32 µM and 29 µM, respectively. For the same compound, the half-maximal cytotoxic concentration (CC50) at 120 h in series [6] stood at 32 µM. In addition, the selectivity ratio in series [7] is less than 1.

For the compound `O=c1[nH]c2ccc(Cl)cc2n1S(=O)(=O)CCc1ccccc1Cl`, the EC50 in series [1] was greater than 100 µM. Also, the IC50 in series [2] is 214 µM; in series [3], 280 µM; in [4] it was no less than 323 µM; in [5], 137 µM; in series [8] it was greater than 323 µM; in series [9], greater than 323 µM. Moreover, the figures for the IC50 in [10] and in series [11] were 176 µM and 116 µM, respectively. The CC50 at 120 h in [6] is 100 µM. Further, the selectivity ratio in series [7] is less than 1.

`O=c1[nH]c2ccc(Cl)cc2n1S(=O)(=O)Cc1ccccc1`: the EC50 in series [1] is 0.83 µM. The IC50 in series [2] was 90 µM; in series [3] it was 250 µM; in [4], 98 µM; in series [5], 9.38 µM; in series [8], greater than 371 µM; in [9], greater than 371 µM. Besides, the IC50 is no less than 273 µM in series [10] and 17 µM in [11]. Also, the CC50 at 120 h in series [6] is 155 µM. Moreover, the selectivity ratio in series [7] came out at 187.

As for `O=c1[nH]c2ccc(Cl)cc2n1S(=O)(=O)Cc1ccc(Cl)cc1`, the EC50 in series [1] came out at 5.06 µM. In addition, the IC50 is 92 µM in series [2]; greater than 335 µM in [3]; no less than 285 µM in series [4]; 15 µM in series [5]; greater than 335 µM in series [8]; greater than 335 µM in series [9]. Moreover, the IC50 in series [10] is greater than 335 µM; in series [11], 18 µM. Besides, the CC50 at 120 h in series [6] was determined as 77 µM. Also, in series [7], the selectivity ratio amounted to 15.

Consider `Cc1ccc(CCS(=O)(=O)n2c(=O)[nH]c3ccc(Cl)cc32)cc1`, for which the EC50 in series [1] is greater than 160 µM. For the same compound, the IC50 was 311 µM in series [2]; 89 µM in [3]; 160 µM in series [4]; 95 µM in [5]; greater than 342 µM in series [8]; 249 µM in series [9]. Also, the 50% inhibitory concentration (IC50) in series [10] turned out to be 179 µM; in series [11], 218 µM. The CC50 at 120 h in series [6] came to 161 µM. The selectivity ratio in series [7] is less than 1.

In the case of `O=c1[nH]c2ccc(Cl)cc2n1S(=O)(=O)CCc1ccc(Cl)cc1`, the EC50 in [1] is greater than 91 µM. Also, the IC50 in series [2] was 180 µM; in [3] it was 69 µM; in series [4] it was 108 µM; in [5], 69 µM; in series [8], 231 µM; in series [9] it was 227 µM. For the same compound, the IC50 is 107 µM in [10] and 95 µM in [11]. Besides, the CC50 at 120 h in series [6] was 91 µM. Moreover, the selectivity ratio in series [7] was less than 1.

In the case of `Cc1cccc(CS(=O)(=O)n2c(=O)[nH]c3ccc(Cl)cc32)c1`, the EC50 in [1] is 0.08 µM. Further, the IC50 was 3 µM in series [2]; 132 µM in series [3]; 7.6 µM in series [4]; 0.9 µM in series [5]; 105 µM in series [8]; greater than 356 µM in [9]. Also, the IC50 in series [10] worked out at 98 µM; in series [11] it was 0.79 µM. Further, the CC50 at 120 h in series [6] is 110 µM. Moreover, the selectivity ratio in series [7] came out at 1380.

With `Cc1cccc(CCS(=O)(=O)n2c(=O)[nH]c3ccc(Cl)cc32)c1`, the EC50 in [1] is greater than 31 µM. The IC50 in [2] is 65 µM; in series [3], 90 µM; in series [4], 88 µM; in series [5], 74 µM; in series [8] it was 119 µM; in [9] it was 219 µM. Besides, the IC50 was found to be 80 µM in series [10] and 39 µM in [11]. Moreover, the CC50 at 120 h in series [6] was found to be 31 µM. Besides, the selectivity ratio in [7] was less than 1.

In the case of `O=c1[nH]c2ccc(Cl)cc2n1S(=O)(=O)Cc1cccc(Cl)c1`, the half-maximal effective concentration (EC50) in series [1] came out at 1.14 µM. In addition, the IC50 in [2] is 29 µM; in series [3], 260 µM; in series [4], 64 µM; in [5], 6.6 µM; in series [8], greater than 335 µM; in [9], greater than 335 µM. The IC50 in series [10] is greater than 335 µM; in [11], 6 µM. The CC50 at 120 h in series [6] worked out at 152 µM. Besides, the selectivity ratio in series [7] turned out to be 134.

`Cc1ccc(CS(=O)(=O)n2c(=O)[nH]c3ccc(Cl)cc32)cc1`: the EC50 in series [1] stood at 1.93 µM. Besides, the IC50 is 55 µM in series [2]; no less than 310 µM in [3]; 63 µM in [4]; 6.6 µM in series [5]; 280 µM in [8]; 280 µM in [9]. Also, the IC50 in series [10] came to 183 µM; in series [11], 2.25 µM. In series [6], the CC50 at 120 h stood at 93 µM. Also, the selectivity ratio in series [7] was 48.

With `O=c1[nH]c2ccc(Cl)cc2n1S(=O)(=O)CCc1ccccc1`, the EC50 in series [1] was greater than 30 µM. Besides, the IC50 in series [2], in series [3], in series [4], in [5], in series [8] and in [9] was greater than 356 µM in each case. For the same compound, the IC50 in [10] was greater than 356 µM; in [11], 76 µM. For the same compound, the CC50 at 120 h in series [6] is 30 µM. The selectivity ratio in series [7] was less than 1.

Consider `Cc1ccccc1CS(=O)(=O)n1c(=O)[nH]c2ccc(Cl)cc21`, for which the EC50 in series [1] turned out to be 10 µM. The IC50 in series [2] is no less than 64 µM; in [3], greater than 356 µM; in series [4] it was greater than 356 µM; in series [5] it was greater than 356 µM; in series [8], greater than 356 µM; in [9] it was greater than 356 µM. The results for the IC50 in series [10] and in series [11] were greater than 356 µM and 21 µM, respectively. Also, the CC50 at 120 h in [6] stood at 238 µM. Also, in series [7], the selectivity ratio is 24.

In the case of `O=C1Nc2ccc(Cl)cc2[C@@](C#CC2CC2)(C(F)(F)F)O1` [EFAVIRENZ], in [6], the CC50 at 120 h is greater than 6.33 µM.

On to `Cc1ccnc2c1NC(=O)c1cccnc1N2C1CC1` [NEVIRAPINE], for which the EC50 in series [1] came to 0.18 µM. Besides, in series [6], the CC50 at 120 h was greater than 15 µM.
